# Columns and labels:
# [1] = system: TNFα production in LPS-stimulated human monocytes; experiment: Cot Monocyte TNFα Cell Based Assay; conditions: Homo sapiens, Monocyte, TNFα in LPS-stimulated human monocytes; read-out: EC50 TNF
# Protocol: Example 60: Cot Monocyte TNFα Cell Based Assay
# The cell suspension was then plated at a density of 5,000 cells/well onto black 384 well Greiner clear bottom plates. Plates were pre-spotted with test compounds and serially diluted in DMSO where 200 nL/well were delivered using the Echo 550 acoustic liquid dispenser (Labcyte®) for a final DMSO concentration of 0.5%. Plated cells were treated with compound for 1 hour at 37° C. Cells were then stimulated with 50 pg/ml of LPS (Sigma) excluding outside columns of plate used for unstimulated cell control wells. Cells were incubated for an additional 4 hours at 37° C. Cells were then spun out of the media and 5 ul of sample were taken and analyzed for total TNFα content using the TR-FRET Human TNFα detection system (CisBio). This system utilizes two labeled antibodies (cryptate and XL665) that bind to two different epitopes of the TNFα molecule and produce FRET signal proportional to the concentration of TNFα in the sample. Detection antibodies are mixed 50:50 and 5 μL were dispensed into each well. Plates were covered with clear seals and incubated at room temp overnight. […] Percent of control was calculated as follows: % Control=100×(RatioSample−Ratio0% stimulation)/(Ratio100% Stimulation−Ratio0% Stimulation) where unstimulated cells (0% stimulation) were the negative control and stimulated cells (100% stimulation) were used as the positive control.
# [2] = biological target: T1, human Cot catalytic domain (30-397 amino acids) (Homo sapiens, UniProt P41279); experiment: High Throughput Cot Biochemical Assay (KinEASE TR-FRET); conditions: Cot KinEASE TR-FRET (HTRF) biochemical assay, 400 μM ATP; read-out: IC50 HTRF
# T1 construct: Purified recombinant human Cot catalytic domain (30-397 amino acids) was purchased from Cama Biosciences; purchased Cama Biosciences (so in the source)
# Procedure, shortened: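 TR-FRET readout: Eu-labeled phospho-specific antibody binds XL665-tagged STK3 peptide after phosphorylation by Cot (aa 30-397, 5 nM). Conditions: 400 μM ATP, 1 μM peptide, MOPS pH 7.0 buffer with MgOAc, DTT, BSA, NP-40, glycerol; 0.1% DMSO.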
# T1 sequence (P41279 30-397): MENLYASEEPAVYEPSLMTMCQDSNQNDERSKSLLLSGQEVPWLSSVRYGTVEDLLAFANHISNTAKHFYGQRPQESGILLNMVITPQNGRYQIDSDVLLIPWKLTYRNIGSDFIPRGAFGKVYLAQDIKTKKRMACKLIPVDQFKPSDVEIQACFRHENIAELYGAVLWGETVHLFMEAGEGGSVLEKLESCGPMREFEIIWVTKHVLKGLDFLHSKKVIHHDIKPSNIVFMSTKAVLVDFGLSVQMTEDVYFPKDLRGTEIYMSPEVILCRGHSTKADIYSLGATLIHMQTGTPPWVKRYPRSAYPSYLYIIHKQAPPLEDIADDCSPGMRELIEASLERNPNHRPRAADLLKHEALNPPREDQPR
Compound,EC50 [1],IC50 [2]
[2H][C@](Nc1cc(Cl)c2ncc(C#N)c(N[C@H](CC)c3ccccc3)c2c1)(c1cccc(C#N)c1)c1c[nH]nn1 [Compound 15],0.134 µM,0.004 µM
"CC(C)(C)N1CCC(n2cc([C@@H](Nc3cc(Cl)c4ncc(C#N)c(NC(=O)c5ccccc5)c4c3)c3ccc(F)cc3)nn2)CC1 [Compound 16, (S)-N-(6-(((1-(1-(tert-butyl)piperidin-4-yl)-1H-1,2,3-triazol-4-yl)(4-fluorophenyl)methyl)amino)-8-chloro-3-cyanoquinolin-4-yl)benzamide]",> 10 µM,1.4 µM
"CC(C)(C)N1CCC(n2cc([C@@H](Nc3cc(Cl)c4ncc(C#N)c(Nc5ccc(F)c(Cl)c5)c4c3)c3cccc(CO)c3)nn2)CC1 [Compound 17, (S)-6-(((1-(1-(tert-butyl)piperidin-4-yl)-1H-1,2,3-triazol-4-yl)(3-(hydroxymethyl)phenyl)methyl)amino)-8-chloro-4-((3-chloro-4-fluorophenyl)amino) quinoline-3-carbonitrile]",0.26 µM,0.004 µM
CN(C)Cc1cccc([C@H](Nc2cc(Cl)c3ncc(C#N)c(Nc4ccc(F)c(Cl)c4)c3c2)c2cn(C3CCN(C(C)(C)C)CC3)nn2)c1 [Compound 18],1.22 µM,0.007 µM
CC(C)(C)N1CCC(n2cc([C@@H](Nc3cc(Cl)c4ncc(C#N)c(Nc5ccc(F)c(Cl)c5)c4c3)c3cccc(C(=O)O)c3)nn2)CC1 [Compound 19],18 µM,0.005 µM
CN(C)C(=O)c1cccc([C@H](Nc2cc(Cl)c3ncc(C#N)c(Nc4ccc(F)c(Cl)c4)c3c2)c2cn(C3CCN(C(C)(C)C)CC3)nn2)c1 [Compound 20],0.041 µM,0.001 µM
CC(=O)c1cccc([C@H](Nc2cc(Cl)c3ncc(C#N)c(Nc4ccc(F)c(Cl)c4)c3c2)c2cn(C3CCN(C(C)(C)C)CC3)nn2)c1 [Compound 21],0.234 µM,0.005 µM
CC(O)c1cccc([C@H](Nc2cc(Cl)c3ncc(C#N)c(Nc4ccc(F)c(Cl)c4)c3c2)c2cn(C3CCN(C(C)(C)C)CC3)nn2)c1 (stereo partly drawn) [Compound 22],0.158 µM,0.002 µM
CC(C)(C)N1CCC(n2cc([C@@H](Nc3cc(Cl)c4ncc(C#N)c(Nc5ccc(F)c(Cl)c5)c4c3)c3cccc(-c4ncco4)c3)nn2)CC1 [Compound 23],0.095 µM,0.002 µM
CC(C)(C)N1CCC(n2cc([C@@H](Nc3cc(Cl)c4ncc(C#N)c(Nc5ccc(F)c(Cl)c5)c4c3)c3cccc(N)c3)nn2)CC1 [Compound 24],0.12 µM,0.006 µM
CC(C)(C)N1CCC(n2cc([C@@H](Nc3cc(Cl)c4ncc(C#N)c(Nc5ccc(F)c(Cl)c5)c4c3)c3cccc(NS(C)(=O)=O)c3)nn2)CC1 [Compound 25],0.975 µM,0.004 µM
[2H]C(Nc1cc(Cl)c2ncc(C#N)c(NCC(C)(C)C)c2c1)(c1cn(C(F)(F)CO)nn1)c1ccccc1Cl (stereo not drawn) [Compound 26],0.38 µM,0.013 µM
"CCN1CCC(n2cnc(C(Nc3cc(Cl)c4ncc(C#N)c(Nc5ccc(F)c(Cl)c5)c4c3)c3ccccc3)c2)CC1 (stereo not drawn) [Compound 27, 8-chloro-4-((3-chloro-4-fluorophenyl)amino)-6-(((1-(1-ethylpiperidin-4-yl)-1H-imidazol-4-yl)(phenyl)methyl)amino) quinoline-3-carbonitrile]",0.232 µM,0.011 µM
[2H][C@](Nc1cc(-c2ccccn2)c2ncc(C#N)c(NCC(C)(C)C)c2c1)(c1ccc(F)cc1)c1cn(C2CC2)nn1 [Compound 28],> 1 µM,2 µM
[2H][C@](Nc1cc(C(C)O)c2ncc(C#N)c(NCC(C)(C)C)c2c1)(c1ccc(F)cc1)c1cn(C2CC2)nn1 (stereo partly drawn) [Compound 29],> 1 µM,0.217 µM
[2H][C@](Nc1cc(C#C)c2ncc(C#N)c(N[C@H](CC)c3ccccc3)c2c1)(c1ccc(F)cc1)c1cn(C2CC2)nn1 [Compound 30],> 10 µM,7.21 µM
N#Cc1cnc2c(Cl)cc(N[C@@H](c3ccc(F)cc3)c3cn(C4CC4)nn3)cc2c1N[C@H](CCF)c1ccccc1 [Compound 32],0.078 µM,0.005 µM
[2H]C(Nc1cc(Cl)c2ncc(C#N)c(NC(=O)C(C)(C)C)c2c1)(c1ccc(F)cc1)c1cn(C2CC2)nn1 (stereo not drawn) [Compound 33],> 10 µM,1.62 µM

Compound,EC50 [1],IC50 [2]
[2H]C(Nc1cc(Cl)c2ncc(C#N)c(N[C@H](CCN3CCOCC3)c3ccccc3)c2c1)(c1ccc(F)cc1)c1cn(C2CC2)nn1 (stereo partly drawn) [Compound 34],0.192 µM,0.013 µM
COCCN1CCC(n2cc([C@@H](Nc3cc(Cl)c4ncc(C#N)c(Nc5ccc(F)c(Cl)c5)c4c3)c3ccc(F)cc3)nn2)CC1 [Compound 35],0.229 µM,0.015 µM
[2H]C(Nc1cc(Cl)c2ncc(C#N)c(N[C@H](CC)c3ccccc3)c2c1F)(c1cccc(C#N)c1)c1cn(C2CC2)nn1 (stereo partly drawn) [Compound 36],> 10 µM,> 10 µM
[2H][C@](Nc1cc(Cl)c2ncc(C#N)c(N[C@H](CC)c3ccccc3)c2c1)(c1cccc(C#N)c1)c1cnnn1C1CC1 [Compound 37],> 1 µM,0.81 µM
CCN1CCC(n2cc([C@@H](Nc3cc(Cl)c4ncc(C#N)c(Nc5ccc(F)c(Cl)c5)c4c3)c3cccc(C(=O)N(C)C)c3)nn2)CC1 [Compound 41],0.074 µM,0.001 µM
CC(C)(C)N1CCC(n2cc([C@@H](Nc3cc(Cl)c4ncc(C#N)c(Nc5ccc(F)c(Cl)c5)c4c3)c3cccc(C=O)c3)nn2)CC1 [Compound 42],0.138 µM,0.005 µM
[2H][C@](Nc1cc(O)c2ncc(C#N)c(NCC(C)(C)C)c2c1)(c1ccc(F)cc1)c1cn(C2CC2)nn1 [Compound 43],> 10 µM,1.94 µM
[2H][C@](Nc1cc(Cl)c2ncc(C#N)c(Nc3cnc(F)c(F)c3)c2c1)(c1ccc(F)cc1)c1cn(CF)nn1 [Compound 44],0.902 µM,0.053 µM
Cn1cc([C@@H](Nc2cc(Cl)c3ncc(C#N)c(Nc4cnc(F)c(F)c4)c3c2)c2ccccc2F)nn1 [Compound 45],0.877 µM,0.01 µM
CC(C)(C)CNc1c(C#N)cnc2c(C#N)cc(N[C@@H](c3cccc(C(=O)N4CC(F)C4)c3)c3cn(C4CC4)nn3)cc12 [Compound 58],0.269 µM,0.003 µM
CC(C)(C)CNc1c(C#N)cnc2c(C#N)cc(N[C@@H](c3cccc(C(N)=O)c3)c3cn(C4CC4)nn3)cc12 [Compound 59],0.612 µM,0.001 µM
CC(C)(C)CNc1c(C#N)cnc2c(Br)cc(N[C@@H](c3cccc(C(=O)O)c3)c3cn(C4CC4)nn3)cc12 [Compound 60],> 1 µM,0.017 µM
[2H][C@](Nc1cc(Cl)c2ncc(C#N)c(N[C@H](CC)c3ccccc3)c2c1)(c1cccc(C#N)c1)c1cn(CC=C)nn1 [Compound 61],0.075 µM,0.003 µM
[2H][C@](Nc1cc(-c2cnc(C)nc2)c2ncc(C#N)c(NCC(C)(C)C)c2c1)(c1ccc(F)cc1)c1cn(C2CC2)nn1 [Compound 62],0.447 µM,0.029 µM
"CC[C@@H](Nc1c(C#N)cnc2c(Cl)cc(N[C@H](c3cn(C4(C#N)CC4)nn3)c3ccccc3Cl)cc12)c1ccccc1 [Example 49, 8-chloro-6-(((S)-(2-chlorophenyl)(1-(1-cyanocyclopropyl)-1H-1,2,3-triazol-4-yl)methyl)amino)-4-(((R)-1-phenylpropyl)amino) quinoline-3-carbonitrile]",0.33 µM,0.026 µM
"[2H][C@](Nc1cc(Cl)c2ncc(C#N)c(N[C@H](CCC#N)c3ccccc3)c2c1)(c1cccc(C#N)c1)c1cn(C(F)(F)CO)nn1 [Example 51, 8-chloro-4-(((R)-3-cyano-1-phenylpropyl)amino)-6-(((S)-(3-cyanophenyl) (1-(1,1-difluoro-2-hydroxyethyl)-1H-1,2,3-triazol-4-yl)methyl-d)amino) quinoline-3-carbonitrile]",0.057 µM,0.001 µM
"CC(C)(C)CNc1c(C#N)cnc2c(Br)cc(N[C@@H](c3cccc(C(=O)N4CC(O)C4)c3)c3cn(C4CC4)nn3)cc12 [Example 52, (S)-8-bromo-6-(((1-cyclopropyl-1H-1,2,3-triazol-4-yl) (3-(3-hydroxyazetidine-1-carbonyl)phenyl)methyl)amino)-4-(neopentylamino) quinoline-3-carbonitrile]",> 1 µM,0.004 µM
"CC(C)(C)CNc1c(C#N)cnc2c(Br)cc(N[C@@H](c3cccc(C(=O)N4CC(F)C4)c3)c3cn(C4CC4)nn3)cc12 [Example 53, (S)-8-bromo-6-(((1-cyclopropyl-1H-1,2,3-triazol-4-yl)(3-(3-fluoroazetidine-1-carbonyl)phenyl)methyl)amino)-4-(neopentylamino) quinoline-3-carbonitrile]",0.163 µM,0.005 µM

# Source: patent US10316017B2, “COT modulators and methods of use thereof” (Gilead Sciences, Inc., priority 2015, dated 2019)
